Data as given in patent US9439986B2, “Tricarbonyl technetium-99m, rhenium-185/187, or rhenium-188 labeled cyclic RGD derivatives and uses thereof” (BIO IMAGING KOREA CO., LTD., priority 2010, dated 2016).

Key:
[1] = tested on: tumor
Protocol: The small-animal SPECT/CT was used to acquire static imaging of the mice for 60 minutes after the injection. The imaging protocol consisted of repetition of emission and transmission as follows: [10 min emission+transmission]×6 times

[2] = tested on: integrin αvβ3; details: cRGDyV 18 mg/Kg tail vein 10 minutes before; at 25 minutes post-injection; compared to images of FIG. 6
Protocol: Upon injection, SPECT/CT images were acquired under following conditions:
The animal models were anesthetized with 2% isofluorane gas for the duration of image acquisition time, and the tumor size of the animal models was 0.4 cc. CT images were taken under condition of 45 v, 178 μA for 4 min and 30 sec., and acquired at 10 minute intervals for total 9 times (i.e., for 90 minutes after the injection).

[3] = tested on: subcutaneous tumor; assay: Tumor growth suppression and treatment performance of rhenium-188 labeled derivative in tumor model mice (I); format: in vivo
Protocol: Treatment effect experiment was conducted to investigate the ability of tricarbonyl rhenium-188 labeled cyclic RGD derivative to suppress tumor growth.
The rhenium-188 labeled cyclic RGD derivative of Example 5 was injected once in a week, for four weeks. The models to determine treatment effect were divided into small radioactive injection group (300 μCi) and large radioactive injection group (600 μCi), and at the same time, a control group injected with sterilized saline and a comparative group injected with 100 μg of cyclic RGD (cRGDyV) intraperitoneally everyday, were also set. The compound of Example 11 and the sterilized saline were administered through tail veins. The CT images was taken once a week, to visually measure the growth and size of the subcutaneous tumor. The tumor was actually measured three times a week using Vernier Calipers, and the weights of the animal models were also consistently measured three times a week for total 4 weeks.

[4] = 100 μg cyclic RGD (cRGDyV) intraperitoneally everyday, initial tumor size 0.7 cc
[5] = 600 μCi once a week for four weeks
[6] = 600 μCi once a week, 0.3 cc at initial measurement

Q: Which results are given for “(tricarbonyl [^188Re]rhenium-N-α-bis-hydroxycarbonyl methyl-aspartic acid)-[cyclic(lysine-alginine-glycine-aspartic acid-D-phenylalanine)]2 [Example 12]”?
A: CD31 blood vessel staining of tumor tissue slice ([1]; 600 μCi/200 μL): no clear vessels were observed; integrin αvβ3 distribution in tumor tissue slice using Q-dot RGD derivatives ([1]; 600 μCi/200 μL): most integrin was damaged; reduction of uptake rate in tumor (SPECT with the compound of Example 15) versus non-administered model ([1]; 600 μCi/200 μL, SPECT after three days): 59%; distribution of blood vessels around the tumor (photographs of removed tumors) ([1]; 600 μCi/200 μL, versus non-administered model): noticeably less distribution of ambient blood vessels

Q: “(tricarbonyl-[^99mTc]technetium-N-α-bis-hydroxycarbonyl methyl-aspartic acid)-[cyclic (lysine-alginine-glycine-aspartic acid-D-phenylalanine)]2 [Example 15]” was tested. Which “reduction of absorption in tumor after administration of cyclic RGD (cRGDyV)” value [2] did it give?
A: ≥ 94%

Q: How did the “rate of tumor growth compared with sterilized saline group” value ([3]; 100 μg cyclic RGD (cRGDyV) intraperitoneally everyday) turn out when cRGDyV [cyclic RGD] was run?
A: no meaningful difference

Q: And the “weight of animals after treatment” value ([3]; 100 μg cyclic RGD (cRGDyV) intraperitoneally everyday, initial measurement 23 g)?
A: 30 g

Q: And the “tumor size at 2 week” value [3, 4]?
A: 3.9 cc

Q: What about the “tumor size at 3 week” value [3, 4] of the same substance?
A: 8.0 cc

Q: What about the “tumor size at last week of treatment” value [3, 4] of the same substance?
A: 12.9 cc

Q: “cyclic{(tricarbonyl-[^185/187Re]rhenium-N-α-bis-hydroxycarbonyl methyl-alginine-glycine-aspartic acid-D-phenylalanine} [Example 6]” was tested. Which “tumor size after three days” value ([1]; 600 μCi/200 μL single injection, initial size 0.3 cc, non-administered model 0.65 cc) did it give?
A: 0.35 cc

Q: What does the source list for “cyclic{(tricarbonyl-[^188Re]rhenium-N-α-bis-hydroxycarbonyl methyl-glycine-CONH(CH2CH2O)4CH2CH2CONH-lysine)-alginine-glycine-aspartic acid-D-phenylalanine} [Example 11]”?
A: tumor growth suppression ability compared to sterilized saline or cyclic RGD groups ([3]; 300 μCi once a week for four weeks): approximately 50%; tumor size when the treatment for four weeks was ended ([3]; 300 μCi tail vein once a week for four weeks, initial tumor size 0.23 cc): 0.66 cc; tumor growth suppression ability compared to low radiation energy treatment group (300 μCi) [3, 5]: approximately 79%; tumor growth suppression ability compared to sterilized saline and cyclic RGD groups [3, 5]: approximately 90%; tumor size at the end of the treatment ([3]; 600 μCi once a week for four weeks, 0.3 cc at initial measurement): 1.4 cc; tumor size at 3 week [3, 6]: 0.7 cc; tumor size at week 2 [3, 6]: 0.3 cc
